Measurements: patent publication US6720342B2, “Heterocyclic compounds and their preparation and use” (Novo Nordisk A/S, priority 1996, dated 2004)
Where a name gives a salt, the structure may show the parent alone.

Tests used:
[1] = biological target: T1, muscarinic receptors (M1-site, pirenzepine sensitive site) (Rattus norvegicus, UniProt P08482); test: Inhibition of 3H-PRZ (pirenzepine, [N-methyl-3H]) binding to rat cerebral cortex membranes; settings: 1.0 nM 3H-Pirenzepine, 60 min at 20° C.
T1 construct: Fresh cortex (0.1-1 g) from male Wistar rats (150-200 g) is homogenized; from tissue; host or cells: rat (male Wistar) cerebral cortex membranes
T1 sequence (P08482 1-460): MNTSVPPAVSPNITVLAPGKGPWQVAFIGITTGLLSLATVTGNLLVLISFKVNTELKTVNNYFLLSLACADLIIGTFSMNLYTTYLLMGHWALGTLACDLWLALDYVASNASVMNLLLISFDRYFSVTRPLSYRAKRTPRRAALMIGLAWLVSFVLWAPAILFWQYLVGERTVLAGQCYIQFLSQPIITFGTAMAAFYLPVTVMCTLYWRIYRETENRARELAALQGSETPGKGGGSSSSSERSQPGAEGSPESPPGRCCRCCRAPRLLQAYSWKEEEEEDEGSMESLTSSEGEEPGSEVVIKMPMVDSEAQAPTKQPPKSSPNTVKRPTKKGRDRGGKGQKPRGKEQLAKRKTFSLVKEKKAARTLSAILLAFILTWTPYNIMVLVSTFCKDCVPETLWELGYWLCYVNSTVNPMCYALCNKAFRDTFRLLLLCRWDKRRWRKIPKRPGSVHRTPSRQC
Method: Furthermore the pharmacological properties of the compounds of the invention can also be illustrated by determining their capability to inhibit ^3H-PRZ (pirenzepine, [N-methyl-^3H]) binding to rat cerebral cortex membranes. Pirenzepine binds selectively to subtype of muscarinic receptors. Historically the type is named the M1-site, whereas pirenzepine sensitive site would be more appropriate. Although selective for M1-sites pirenzepine also interact with M2-sites.
(§1) All preparations are performed at 0-4° C. unless otherwise indicated. Fresh cortex (0.1-1 g) from male Wistar rats (150-200 g) is homogenized for 5-10 s. in 10 ml 20 mM Hepes pH: 7.4, with an Ultra-Turrax homogenizer. The homogenizer is rinsed with 2×10 ml of buffer and the combined suspension centrifuged for 15 min at 40,000×g. The pellet is washed three times with buffer. In each step the pellet is homogenized as before in 3×10 ml of buffer and centrifuged for 10 min at 40,000×g.
The final pellet is homogenized in 20 mM Hepes pH: 7.4 (100 ml per g of original tissue) and used for binding assay. Aliquots of 0.5 ml is added 20 μl of test solution and 25 μl of ^3H-Pirenzepine (1.0 nM, final conc.), mixed and incubated for 60 min at 20° C. Non-specific binding is determined in triplicate using atropine (1 μg/ml, final conc.) as the test substance. After incubation samples are added 5 ml of ice-cold buffer and poured directly onto Whatman GF/C glass fiber filters under suction and immediately washed 2 times with 5 ml of ice-cold buffer. The amount of radioactivity on the filters are determined by conventional liquid scintillation counting. Specific binding is total binding minus non-specific binding.
Test substances are dissolved in 10 ml water, at a concentration of 0.22 mg/ml. 25-75% inhibition of specific binding must be obtained before calculation of IC50.
The test value will be given as IC50 (the concentration (nM) of the test substance which inhibits the specific binding of ^3H-PRZ by 50%).
(§2) IC50=(applied test substance concentration)×(Cx/Co−Cx)nM
(§3) where Co is specific binding in control assays and Cx is the specific binding in the test assay. (The calculations assume normal mass-action kinetics).

[2] = biological target: muscarinic acetylcholine receptors; test: Inhibition of specific binding of 3H-Oxotremorine-M (3H-Oxo) to rat cortex membranes; settings: rat cortex homogenate, 1.0 nM 3H-Oxotremorine, 30 min at 25° C.
From the text: The pharmacological properties of the compounds of the invention can be illustrated by determining their capability to inhibit the specific binding of ^3H-Oxotremorine-M (^3H-Oxo). Birdsdall N. J. M., Hulme E. C., and Burgen A. S. V. (1980). “The Character of Muscarinic Receptors in Different Regions of the Rat Brain”. Proc. Roy. Soc. London (Series B) 207, 1.
^3H-Oxo labels muscarinic receptor in the CNS (with a preference for agonist domains of the receptors). Three different sites are labelled by ^3H-Oxo. […] Using the present experimental conditions only the high and medium affinity sites are determined.
The inhibitory effects of compounds on ^3H-Oxo binding reflects the affinity for muscarinic acetylcholine receptors.
as §1, with “(150-250” for “(150-200”, “s” for “s.”, “10” for “2×10”, “min.” for “min”, “2×10” for “3×10”
The final pellet is homogenized in 20 mM Hepes pH: 7.4 (100 ml per g of original tissue) and used for binding assay. Aliquots of 0.5 ml is added 25 μl of test solution and 25 μl of ^3H-Oxotremorine (1.0 nM, final concentration) mixed and incubated for 30 min. at 25° C. Non-specific binding is determined in triplicate using arecoline (1 μg/ml, final concentration) as the test substance. After incubation samples are added 5 ml of ice-cold buffer and poured directly onto Whatman GF/C glass fiber filters under suction and immediately washed 2 times with 5 ml of ice-cold buffer. The amount of radioactivity on the filters are determined by conventional liquid scintillation counting. Specific binding is total binding minus non specific binding.
Test substances are dissolved in 10 ml water (if necessary heated on a steambath for less than 5 min.) at a concentration of 2.2 mg/ml. 25-75% inhibition of specific binding must be obtained before calculation of IC50.
The test value will be given as IC50 (the concentration (nM) of the test substance which inhibits the specific binding of ^3H-Oxo by 50%).
as §2, §3

IC50 [1] | IC50 [2] | Compound
8.3 nM | 7.9 nM | Fc1ccc(C#CCOc2nsnc2OC2CN3CCC2C3)cc1 (stereo not drawn) [Compound 4, Endo 3-(3-[3-(4-fluorophenyl)-2-propynyl-1-oxy]-1,2,5-thiadiazol-4-yloxy)-1-azabicyclo[2.2.1]heptane, oxalate]
14 nM | 10 nM | C(#Cc1ccccc1)COc1nsnc1OC1CN2CCC1C2 (stereo not drawn) [Compound 5, Endo 3-(3-[3-phenyl-2-propynyl-1-oxy]-1,2,5-thiadiazol-4-yloxy)-1-azabicyclo[2.2.1]heptane, oxalate]
17 nM |  | COc1cccc(C#CCOc2nsnc2OC2CN3CCC2C3)c1 (stereo not drawn) [Compound 6, Endo 3-(3-[3-(3-methoxyphenyl)-2-propynyl-1-oxy]-1,2,5-thiadiazol-4-yloxy)-1-azabicyclo[2.2.1]heptane, oxalate]
24 nM | 10 nM | CC(C)=CCOc1nsnc1OC1CN2CCC1C2 (stereo not drawn) [Compound 7, Endo 3-(3-[3-methyl-2-butenyl-1-oxy]-1,2,5-thiadiazol-4-yloxy)-1-azabicyclo[2.2.1]heptane, oxalate]
9.8 nM | 4.9 nM | C(CC1CC1)Oc1nsnc1OC1CN2CCC1C2 (stereo not drawn) [Compound 8, Endo 3-(3-[2-cyclopropylethyl-1-oxy]-1,2,5-thiadiazol-4-yloxy)-1-azabicyclo[2.2.1]heptane, oxalate]
30 nM | 25 nM | Fc1ccc(COc2nsnc2OC2CN3CCC2C3)cc1 (stereo not drawn) [Compound 9, Endo 3-(3-[4-fluorobenzyloxy]-1,2,5-thiadiazol-4-yloxy)-1-azabicyclo-[2.2.1]heptane, oxalate]
32 nM | 49 nM | FC(F)(F)Oc1ccc(COc2nsnc2OC2CN3CCC2C3)cc1 (stereo not drawn) [Compound 14, Endo 3-(3-[4-trifluoromethoxybenzyloxy]-1,2,5-thiadiazol-4-yloxy)-1-azabicyclo[2.2.1]heptane, oxalate]
14 nM | 18 nM | FC(F)(F)CCCOc1nsnc1OC1CN2CCC1C2 (stereo not drawn) [Compound 15, Endo 3-(3-[4,4,4-trifluorobutyl-1-oxy]-1,2,5-thiadiazol-4-yloxy)-1-azabicyclo[2.2.1]heptane, oxalate]
48 nM | 72 nM | COc1cccc(C#CC(C)Oc2nsnc2OC2CN3CCC2C3)c1 (stereo not drawn) [Compound 17, Endo 3-(3-[4-(3-methoxyphenyl)-3-butyn-2-yloxy]-1,2,5-thiadiazol-4-yloxy)-1-azabicyclo[2.2.1]heptane, oxalate]
12 nM | 79 nM | Clc1ccc(C#CCOc2nsnc2OC2CN3CCC2C3)cc1 (stereo not drawn) [Compound 18, Endo 3-(3-[3-(4-chlorophenyl)-2-propynyl-1-oxy]-1,2,5-thiadiazol-4-yloxy)-1-azabicyclo[2.2.1]heptane, oxalate]
53 nM | 126 nM | CCC(C#Cc1cccc(OC)c1)Oc1nsnc1OC1CN2CCC1C2 (stereo not drawn) [Compound 19, Endo 3-(3-[1-(3-methoxyphenyl)-1-pentyn-3-yloxy]-1,2,5-thiadiazol-4-yloxy)-1-azabicyclo[2.2.1]heptane, oxalate]
3.4 nM |  | FC(F)(F)CCCSc1nsnc1OC1CN2CCC1C2 (stereo not drawn) [Compound 30, Endo 3-(3-(4,4,4-trifluorobutylthio)-1,2,5-thiadiazol-4-yloxy)-1-azabicyclo-[2.2.1]heptane, oxalate]
9.2 nM |  | C1CC(COc2nsnc2OC2CN3CCC2C3)C1 (stereo not drawn) [Compound 41, Endo 3-(3-cyclobutylmethyloxy-1,2,5-thiadiazol-4-yloxy)-1-azabicyclo-[2.2.1]heptane, oxalate]

Continued, compound first:

Compound | IC50 [1] | IC50 [2]
CCCCSc1nsnc1OC1CN2CCC1C2 (stereo not drawn) [Compound 1, Endo 3-(3-butylthio-1,2,5-thiadiazol-4-yloxy)-1-azabicyclo[2.2.1]heptane, oxalate] | 0.14 nM | 1.6 nM
CCCSc1nsnc1OC1CN2CCC1C2 (stereo not drawn) [Compound 2, Endo 3-(3-propylthio-1,2,5-thiadiazol-4-yloxy)-1-azabicyclo[2.2.1]heptane, oxalate] | 4.2 nM | 1.4 nM
CC=CCOc1nsnc1OC1CN2CCC1C2 (stereo not drawn) [Compound 10, Endo 3-(3-[2-butenyl-1-oxy]-1,2,5-thiadiazol-4-yloxy)-1-azabicyclo[2.2.1]heptane, oxalate] | 20 nM | 5.3 nM
CC#CCOc1nsnc1OC1CN2CCC1C2 (stereo not drawn) [Compound 11, Endo 3-(3-[2-butynyl-1-oxy]-1,2,5-thiadiazol-4-yloxy)-1-azabicyclo[2.2.1]heptane, oxalate] | 23 nM | 2.1 nM
CSCCOc1nsnc1OC1CN2CCC1C2 (stereo not drawn) [Compound 12, Endo 3-(3-methylthioethoxy-1,2,5-thiadiazol-4-yloxy)-1-azabicyclo-[2.2.1]heptane, oxalate] | 29 nM | 3.7 nM
COCCOc1nsnc1OC1CN2CCC1C2 (stereo not drawn) [Compound 13, Endo 3-(3-methoxyethoxy-1,2,5-thiadiazol-4-yloxy)-1-azabicyclo[2.2.1]heptane, oxalate] | 44 nM | 4.3 nM
Fc1cc(C(F)(F)F)ccc1COc1nsnc1OC1CN2CCC1C2 (stereo not drawn) [Compound 16, Endo 3-(3-[2-fluoro-4-(trifluoromethyl)-benzyloxy]-1,2,5-thiadiazol-4-yloxy)-1-azabicyclo[2.2.1]heptane, oxalate] | 129 nM | 148 nM
FC(F)(F)c1cccc(C#CCOc2nsnc2OC2CN3CCC2C3)c1 (stereo not drawn) [Compound 20, Endo 3-(3-(3-(3-trifluoromethylphenyl)-2-propynyl-1-oxy)-1,2,5-thiadiazol-4-yloxy)-1-azabicyclo[2.2.1]heptane, oxalate] | 11 nM | 
Fc1cccc(C#CCOc2nsnc2OC2CN3CCC2C3)c1 (stereo not drawn) [Compound 28, Endo 3-(3-(3-(3-fluorophenyl)-2-propyn-1-yloxy)-1,2,5-thiadiazol-4-yloxy-1-azabicyclo[2.2.1]heptane, oxalate] |  | 5.5 nM
N#Cc1ccc(CSc2nsnc2OC2CN3CCC2C3)cc1 (stereo not drawn) [Compound 31, Endo 3-(3-[4-cyanobenzylthio]-1,2,5-thiadiazol-4-yloxy)-1-azabicyclo-[2.2.1]heptane, oxalate] | 23 nM | 
FCCSc1nsnc1OC1CN2CCC1C2 (stereo not drawn) [Compound 34, Endo 3-(3-[2-fluoroethyl-1-thio]-1,2,5-thiadiazol-4-yloxy)-1-azabicyclo-[2.2.1]heptane, oxalate] | 31 nM | 
